Laboratory results: paper PMC5891627, “Binding Specificity of Two PBPs in the Yellow Peach Moth Conogethes punctiferalis (Guenée)” (Frontiers in Physiology, 2018)
Like-named read-outs stand apart in the source and are kept apart here.

Columns and labels:
[1] = biological target: CpunPBP5 (Conogethes punctiferalis, UniProt A0A0M4FIS7); test: Fluorescence displacement (competitive, 1-NPN) binding assay; settings: for binding affinity to CpunPBP5 (in words): ranking among the 24 tested ligands
Description: (§1) The fluorescence intensity was recorded on a FluoroMax-4 spectrophotometer (Horiba Scientific, USA) at room temperature using a 1 cm light path fluorimeter quartz cuvette. The fluorescent probe N-phenyl-1-naphthylamine (1-NPN) and all the tested chemicals were dissolved in HPLC purity methanol. The final concentration was prepared 1 mM. […] The fluorescence of 1-NPN was excited at 337 nm and emission spectra were recorded between […]. […] The GraphPad Prism 5 (GraphPad Software, Inc.) was used to estimate the K1−NPN (KD of complex protein /1-NPN) values by nonlinear regression for a unique site of binding. It was assumed that the proteins were 100% active, with a stoichiometry of 1:1 (protein:ligand) at saturation. […] In the equation, [1-NPN] is the free concentration of 1-NPN, and K1−NPN is the dissociation constant of the complex protein /1-NPN.

[2] = biological target: CpunPBP2 (Conogethes punctiferalis, UniProt A0A1D6X8W8); test: as above; settings: for IC50: 1-NPN 2 μM as fluorescent reporter, 2 μM protein; for binding affinity to CpunPBP2 (in words): ranking among the 24 tested ligands
CpunPBP2, sequence (A0A1D6X8W8 entry or part of it): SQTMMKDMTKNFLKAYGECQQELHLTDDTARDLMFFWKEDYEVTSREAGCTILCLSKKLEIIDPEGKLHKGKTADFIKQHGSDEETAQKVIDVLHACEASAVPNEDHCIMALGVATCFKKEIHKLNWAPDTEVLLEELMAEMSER
Description: as §1

[3] = pH = 7.4, 1-NPN 2 μM as fluorescent reporter, 2 μM protein, read-out: IC50
[4] = pH = 7.4, calculated from IC50: KD = [IC50]/(1+[1-NPN]/K1-NPN), read-out: KD (μM), calculated dissociation constant
[5] = ratio of fluorescence intensity at the pheromone concentration of 6 mM to the initial fluorescence intensity, pH = 7.4
[6] = read-out: KD (μM), calculated dissociation constant, pH = 7.4, calculated from IC50: KD = [IC50]/(1+[1-NPN]/K1-NPN)
[7] = ratio of fluorescence intensity at the pheromone concentration of 6 mM to the initial fluorescence intensity, pH = 7.4, read-out: Int (%)

CpunPBP5, sequence (A0A0M4FIS7 entry or part of it): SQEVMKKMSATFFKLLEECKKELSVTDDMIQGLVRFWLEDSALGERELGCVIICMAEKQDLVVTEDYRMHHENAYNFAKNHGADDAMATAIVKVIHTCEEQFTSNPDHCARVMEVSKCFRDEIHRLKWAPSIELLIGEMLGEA

Compound	IC50 [1, 3]	Kd [1, 4]	Int (%) [1, 5]	IC50 ([2]; pH = 7.4, read-out: IC50)	Kd [2, 4]	Int (%) [2, 5]	activity at 6000 µM ([1]; pH 7.4, read-out: Int (%))	activity at 6000 µM ([2]; pH 7.4, read-out: Int (%))	activity at 6000 µM [1, 7]	activity at 6000 µM [2, 7]	Kd [1]	Kd ([2]; read-out: dissociation constant (KD) of CpunPBP2/1-NPN complex, direct titration of 2 μM protein with 1-NPN, Scatchard plot, pH 7.4)	IC50 [1]	binding affinity to CpunPBP5 (in words) [1]	IC50 ([2]; pH = 7.4)	binding affinity to CpunPBP2 (in words) [2]	Kd [2, 6]
c1ccc(Nc2cccc3ccccc23)cc1 [1-NPN, N-phenyl-1-naphthylamine, reference compound]	–	–	–	–	–	–	–	–	–	–	0.58 ± 0.04 µM	0.76 ± 0.1 µM	–	–	–	–	–
CCCCCCCCCCCCCCO [1-tetrodecanol]	–	–	–	–	–	–	42.29 ± 0.12%	45.55 ± 0.38%	–	–	2.86 ± 0.02 µM	–	3.53 ± 0.03 µM	highest binding affinity	3.94 ± 0.14 µM	highest binding affinity	2.28 ± 0.08 µM
CCC(C)CCCC(C)C (centres unmarked) [2,6-Dimethyloctane]	8.2 ± 0.1 µM	6.64 ± 0.08 µM	–	11 ± 0.32 µM	6.38 ± 0.19 µM	–	–	–	54.82 ± 0.07%	78.17 ± 0.43%	–	–	–	–	–	–	–
CCCCCCCCCC=O [Decanal]	15.2 ± 0.6 µM	12.5 ± 0.49 µM	–	13.1 ± 0.24 µM	7.62 ± 0.14 µM	–	–	–	72.6 ± 0.11%	72.86 ± 0.24%	–	–	–	–	–	–	–
CCCCCCC=O [Heptanal]	19.7 ± 0.95 µM	15.9 ± 0.77 µM	–	17.9 ± 0.83 µM	10.4 ± 0.48 µM	–	–	–	68.32 ± 0.21%	84.85 ± 0.31%	–	–	–	minimum binding abilities	–	–	–
C=C(C)[C@H]1CC=C(C)CC1 [Limonene]	10.7 ± 0.22 µM	8.67 ± 0.18 µM	60.13 ± 0.09%	11.9 ± 0.67 µM	6.92 ± 0.39 µM	82.86 ± 0.44%	–	–	–	–	–	–	–	–	–	–	–
C=CC(C)(O)CCC=C(C)C (centres unmarked) [Linalool]	–	–	–	–	–	–	–	–	66.92 ± 0.13%	72.27 ± 0.43%	13.7 ± 1.15 µM	–	17 ± 1.42 µM	minimum binding abilities	22 ± 4.72 µM	minimum binding affinities	12.8 ± 2.74 µM
COc1cc(C=O)ccc1O [Vanillin]	–	–	–	–	–	–	–	–	71.19 ± 0.36%	85.4 ± 0.31%	20.4 ± 2.35 µM	–	25.1 ± 2.9 µM	minimum binding abilities	19.9 ± 1 µM	–	11.6 ± 0.58 µM
CC/C=C\CCO [cis-3-hexen-1-ol]	–	–	–	–	–	–	66.81 ± 0.61%	89.59 ± 0.25%	–	–	14.9 ± 1.12 µM	–	18.4 ± 1.38 µM	minimum binding abilities	34.5 ± 3.2 µM	minimum binding affinities	20 ± 1.85 µM
CC1=CCC2CC1C2(C)C (stereo not drawn) [α-pinene]	–	–	–	–	–	–	–	–	74.88 ± 0.39%	77.7 ± 0.33%	11.4 ± 1.02 µM	–	14.1 ± 1.26 µM	–	27.9 ± 4.3 µM	minimum binding affinities	16.2 ± 2.5 µM
C=C1CCC2CC1C2(C)C (stereo not drawn) [β-pinene]	–	–	–	–	–	–	68.43 ± 0.63%	80.45 ± 0.68%	–	–	9.3 ± 0.31 µM	–	11.5 ± 0.39 µM	–	21 ± 2.26 µM	minimum binding affinities	12.2 ± 1.31 µM
Hexenal	11.7 ± 0.66 µM	9.44 ± 0.53 µM	60.86 ± 0.49%	34.56 ± 0.12 µM	20 ± 0.68 µM	83.11 ± 0.15%	–	–	–	–	–	–	–	–	–	minimum binding affinities	–

Second part, led by results:

IC50 [1, 3]	Kd [1, 4]	Int (%) [1, 5]	IC50 ([2]; pH = 7.4, read-out: IC50)	Kd [2, 4]	Int (%) [2, 5]	activity at 6000 µM ([1]; pH 7.4, read-out: Int (%))	activity at 6000 µM ([2]; pH 7.4, read-out: Int (%))	activity at 6000 µM [1, 7]	activity at 6000 µM [2, 7]	Compound	Kd [1]	Kd ([2]; read-out: dissociation constant (KD) of CpunPBP2/1-NPN complex, direct titration of 2 μM protein with 1-NPN, Scatchard plot, pH 7.4)	IC50 [1]	binding affinity to CpunPBP5 (in words) [1]	IC50 ([2]; pH = 7.4)	binding affinity to CpunPBP2 (in words) [2]	Kd [2, 6]
4.67 ± 0.02 µM	3.78 ± 0.01 µM	45.87 ± 0.10%	6.17 ± 0.14 µM	3.58 ± 0.08 µM	50.42 ± 0.51%	–	–	–	–	C=C1CC/C=C(\C)CC[C@@H]2[C@@H]1CC2(C)C (relative stereo) [Trans-caryopyllene]	–	–	–	–	–	–	–
13.1 ± 0.62 µM	10.6 ± 0.78 µM	–	14.7 ± 0.47 µM	8.5 ± 0.27 µM	–	–	–	65.83 ± 0.28%	77.22 ± 0.07%	CCCCCCCCC=O [Nonanal]	–	–	–	–	–	–	–
7.27 ± 0.06 µM	5.89 ± 0.47 µM	–	14.2 ± 0.71 µM	8.27 ± 0.41 µM	–	–	–	53.54 ± 0.01%	73.64 ± 0.06%	CCCCCCCCCCCCCCCC(=O)O [Palmitic acid]	–	–	–	–	–	–	–
9.62 ± 0.58 µM	7.79 ± 0.48 µM	–	22.3 ± 1.3 µM	12.9 ± 0.76 µM	–	–	–	59 ± 0.62%	86.46 ± 0.38%	CCCCCC/C=C/C=O [Trans-2-nonenal]	–	–	–	–	–	minimum binding affinities	–
12.2 ± 0.66 µM	9.89 ± 0.53 µM	62.12 ± 0.30%	12.3 ± 0.84 µM	7.15 ± 0.49 µM	62.32 ± 0.13%	–	–	–	–	CCCCC/C=C/C=O [Trans-2-octanal]	–	–	–	–	–	–	–
8.67 ± 0.04 µM	7.01 ± 0.03 µM	–	7.49 ± 0.15 µM	4.34 ± 0.08 µM	–	–	–	58.66 ± 0.31%	56.59 ± 0.32%	CCCCCCCCCCC=O [Undecanal]	–	–	–	–	–	–	–
–	–	–	–	–	–	55.28 ± 0.1%	61.8 ± 1.49%	–	–	CC(=O)/C=C/C1C(C)=CCCC1(C)C (stereo not drawn) [α-ionone]	6.79 ± 0.08 µM	–	8.39 ± 0.1 µM	–	10.7 ± 0.97 µM	–	6.22 ± 0.56 µM
5.25 ± 0.02 µM	4.25 ± 0.02 µM	47.47 ± 0.12%	2.82 ± 0.19 µM	1.63 ± 0.11 µM	40.51 ± 0.78%	–	–	–	–	C=CC(=C)CC/C=C(\C)CCC=C(C)C [β-farnesene]	–	–	–	–	–	–	–
–	–	–	–	–	–	62.6 ± 0.79%	88.04 ± 0.58%	–	–	CC(=O)/C=C/C1=C(C)CCCC1(C)C [β-ionone]	9.85 ± 0.38 µM	–	12.2 ± 0.47 µM	–	17.3 ± 0.84 µM	–	10.1 ± 0.49 µM
